{
  "source": "patent US5336758A",
  "about": "“Peptides stimulating cytotoxic T cells immune to HIV RT” (The United States of America as represented by the …, priority 1990, dated 1994)",
  "test_system": "L-cells",
  "type": "cell-based, murine",
  "details": "spontaneous lysis and cell recovery in presence of peptide alone (data not shown)",
  "text": "Identification of the immunodominant epitope recognized by the line Pol a: To identify the epitope(s) contained in this area, we used 21 overlapping 15-amino acid peptides designated HP134 to HP154 covering residues 168 to 316. […] HP138 ([…]) corresponds to residues 205-219 of the HTLV/IIIB strain sequence (32). […] The line Pol a was Class I MHC-restricted because it killed HP 138-pulsed, Class II MHC molecule-negative H-2^k L-cell fibroblasts, but not 3T3 fibroblasts (H-2^d) or EL4 thymoma cells (H-2^b).",
  "data": [
    {"compound": "CC[C@H](C)[C@H](NC(=O)[C@H](CCCCN)NC(=O)[C@H](CO)NC(=O)[C@@H](NC(=O)[C@H](CCCCN)NC(=O)CNC(=O)[C@H](CCC(=O)O)NC(=O)[C@H](CCCCN)NC(=O)[C@H](CCC(=O)O)NC(=O)[C@H](CCSC)NC(=O)[C@H](CCC(=O)O)NC(=O)[C@@H](NC(=O)[C@@H](N)CS)[C@@H](C)O)[C@@H](C)CC)C(=O)NCC(=O)N1CCC[C@H]1C(=O)O", "note": "[HP138]", "values": [
      {"measurement": "toxicity of the peptide by itself", "value": "not toxic by itself"}
    ]}
  ]
}
